Reference: PubChem BioAssay (NCI)
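The compound was tested at five concentrations on cells cultured in 96-well plates, with a 48-hour exposure period. GI50: concentration for 50% inhibition of growth. TGI marks complete inhibition of growth.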

Legend:
Assay in all cases: NCI tumour cell line growth inhibition, 48 h
COLO 205 colon = tested on: COLO 205 colon
DU-145 prostate = tested on: DU-145 prostate
HCC-2998 colon = tested on: HCC-2998 colon
IGROV1 ovarian = tested on: IGROV1 ovarian
M14 melanoma = tested on: M14 melanoma
MDA-MB-435 = tested on: MDA-MB-435
MDA-N = tested on: MDA-N
MOLT-4 leukemia = tested on: MOLT-4 leukemia
SK-MEL-5 melanoma = tested on: SK-MEL-5 melanoma
DMS 114 small cell lung = tested on: DMS 114 small cell lung
DMS 273 small cell lung = tested on: DMS 273 small cell lung
HOP-18 NSCLC = tested on: HOP-18 NSCLC
P388/ADR leukemia = tested on: P388/ADR leukemia
SN12K1 renal = tested on: SN12K1 renal

`CCOc1ncn(-c2ccc(NC(=S)Nc3cccc(O)c3)cc2)n1` was tested, and the TGI (COLO 205 colon) was > 100 µM, the TGI (DU-145 prostate) was > 100 µM and the TGI (HCC-2998 colon) was > 100 µM. For the same compound, the TGI (IGROV1 ovarian) was > 100 µM, the TGI (M14 melanoma) was > 100 µM and the TGI (MDA-MB-435) was > 100 µM. For the same compound, the TGI (MDA-N) was > 100 µM, the TGI (MOLT-4 leukemia) was > 100 µM and the TGI (SK-MEL-5 melanoma) was > 100 µM.
For `ClCCN(CCCl)Cc1ccc(Nc2ccnc3cc(Cl)ccc23)cc1`, the GI50 (HCC-2998 colon) was 1410 nM, the TGI (HCC-2998 colon) was 2.76 µM and the GI50 (MOLT-4 leukemia) was 416 nM. For the same compound, the TGI (MOLT-4 leukemia) was 2.78 µM.
`COc1ccc(C(=O)C2CC3(CCC2(O)c2ccc(OC)cc2)CC(=O)Nc2ccccc2C3=O)cc1` (stereo not given) was tested, and the TGI (COLO 205 colon) was > 100 µM, the TGI (DU-145 prostate) was > 100 µM and the TGI (HCC-2998 colon) was > 100 µM. The TGI (IGROV1 ovarian) was > 100 µM, the TGI (M14 melanoma) was > 100 µM and the TGI (MDA-MB-435) was > 100 µM. For the same compound, the TGI (MDA-N) was > 100 µM and the TGI (SK-MEL-5 melanoma) was > 100 µM.
In the case of `CC1(C)CCc2c(cc3c(c2O)CCC(C)(C)O3)O1`, the TGI (COLO 205 colon) is reported as > 100 µM, the TGI (DU-145 prostate) is reported as > 100 µM and the TGI (HCC-2998 colon) is reported as > 100 µM. For the same compound, the TGI (IGROV1 ovarian) was > 100 µM, the TGI (M14 melanoma) was > 100 µM and the TGI (MDA-N) was > 100 µM. For the same compound, the TGI (MOLT-4 leukemia) was > 100 µM and the TGI (SK-MEL-5 melanoma) was > 100 µM.
`Cc1ccc(OP2(=O)Oc3ccc4ccccc4c3CN2c2ccc(Cl)cc2)cc1C` (stereo not given) was tested, and the TGI (COLO 205 colon) was > 100 µM, the TGI (DMS 114 small cell lung) was > 100 µM and the TGI (DMS 273 small cell lung) was > 100 µM. The TGI (HCC-2998 colon) was > 100 µM, the TGI (HOP-18 NSCLC) was > 100 µM and the TGI (IGROV1 ovarian) was > 100 µM. The TGI (MOLT-4 leukemia) was > 100 µM, the TGI (P388/ADR leukemia) was > 100 µM and the TGI (SK-MEL-5 melanoma) was > 100 µM. For the same compound, the TGI (SN12K1 renal) was > 100 µM.
`Nc1cc2c(cc1[N+](=O)[O-])[nH]c1c(-c3ccccc3)nccc12` showed a TGI (COLO 205 colon) of 44.3 µM, a TGI (DMS 114 small cell lung) of 35.7 µM and a TGI (DMS 273 small cell lung) of 48.9 µM. For the same compound, the TGI (HCC-2998 colon) was 31.5 µM, the TGI (HOP-18 NSCLC) was 50.8 µM and the TGI (IGROV1 ovarian) was 35.9 µM. For the same compound, the TGI (MOLT-4 leukemia) was 19.8 µM, the TGI (P388/ADR leukemia) was 44.5 µM and the TGI (SK-MEL-5 melanoma) was 31.7 µM. It also gave a TGI (SN12K1 renal) of 67.7 µM.
`C=C/C(C)=C/[C@H](C)C(=O)C[C@H](O)CC1CC(=O)NC(=O)C1` was tested, and the TGI (COLO 205 colon) was > 100 µM, the TGI (DMS 114 small cell lung) was > 100 µM and the TGI (DMS 273 small cell lung) was > 100 µM. The TGI (HCC-2998 colon) was > 100 µM, the TGI (HOP-18 NSCLC) was > 93.6 µM and the TGI (IGROV1 ovarian) was > 86.7 µM. For the same compound, the TGI (MOLT-4 leukemia) was > 100 µM, the TGI (P388/ADR leukemia) was > 100 µM and the TGI (SK-MEL-5 melanoma) was > 100 µM. For the same compound, the TGI (SN12K1 renal) was > 100 µM.
With `COC[C@H]1C(=O)NCC(=O)N2NCCC[C@H]2C(=O)N(O)[C@H](C)C(=O)O[C@@H](C(C)C)[C@H](NC(=O)[C@](C)(O)[C@]2(O)CC[C@@H](CC(C)C)[C@H](C)O2)C(=O)N2NCCC[C@@H]2C(=O)N1O` the GI50 (COLO 205 colon) was 13.9 nM, the TGI (COLO 205 colon) was 0.0284 µM and the GI50 (DU-145 prostate) was < 11.4 nM. For the same compound, the TGI (DU-145 prostate) was 0.0232 µM, the GI50 (MDA-MB-435) was < 10 nM and the TGI (MDA-MB-435) was 0.0128 µM. For the same compound, the GI50 (MOLT-4 leukemia) was < 10 nM and the TGI (MOLT-4 leukemia) was 0.0464 µM.
With `CO/C(=N\N=C(/C)C(F)(F)F)c1ccncc1` the TGI (COLO 205 colon) was > 100 µM, the TGI (DU-145 prostate) was > 100 µM and the TGI (IGROV1 ovarian) was > 100 µM. For the same compound, the TGI (M14 melanoma) was > 100 µM, the TGI (MDA-MB-435) was > 100 µM and the TGI (MDA-N) was > 100 µM. For the same compound, the TGI (MOLT-4 leukemia) was > 100 µM and the TGI (SK-MEL-5 melanoma) was > 100 µM.
